From article doi:10.1101/208439v1 (biorxiv, 2017)
pIC50: −log10 of the molar value. Where two headings read alike, the source gives them in different places.

Columns and labels:
Assay in all cases: HotSpot [3H]SAM filter-binding methyltransferase assay
Type in all cases: biochemical
NSD3 = biological target: T1, NSD3 (Homo sapiens, UniProt Q9BZ95); set-up: residues 1021-1322, GST fusion, E. coli; conditions: nucleosomes, […] SAM, Bicine pH […] DTT, […] °C, single experiment
T1 sequence (Q9BZ95 1021-1322): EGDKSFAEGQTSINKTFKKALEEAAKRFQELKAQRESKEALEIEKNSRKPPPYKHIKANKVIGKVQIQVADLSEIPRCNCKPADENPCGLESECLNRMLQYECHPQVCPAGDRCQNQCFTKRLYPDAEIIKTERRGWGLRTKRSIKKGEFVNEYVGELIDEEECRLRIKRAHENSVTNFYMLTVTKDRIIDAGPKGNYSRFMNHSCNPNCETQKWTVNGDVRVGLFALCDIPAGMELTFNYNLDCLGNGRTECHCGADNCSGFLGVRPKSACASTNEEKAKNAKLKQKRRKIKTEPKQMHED

ASH1L = ASH1L (Homo sapiens, UniProt Q9NR48); set-up: residues 2046-2330, N-terminal His tag, E. coli
NSD1 = biological target: T2, NSD1 (Homo sapiens, UniProt Q96L73); conditions: nucleosomes, […] SAM, pH […] MgCl2, […] DTT, […] °C, single experiment
T2 construct: residues 1538-2696, N-terminal His tag, insect cell/baculovirus
T2 sequence (Q96L73 1538-2696): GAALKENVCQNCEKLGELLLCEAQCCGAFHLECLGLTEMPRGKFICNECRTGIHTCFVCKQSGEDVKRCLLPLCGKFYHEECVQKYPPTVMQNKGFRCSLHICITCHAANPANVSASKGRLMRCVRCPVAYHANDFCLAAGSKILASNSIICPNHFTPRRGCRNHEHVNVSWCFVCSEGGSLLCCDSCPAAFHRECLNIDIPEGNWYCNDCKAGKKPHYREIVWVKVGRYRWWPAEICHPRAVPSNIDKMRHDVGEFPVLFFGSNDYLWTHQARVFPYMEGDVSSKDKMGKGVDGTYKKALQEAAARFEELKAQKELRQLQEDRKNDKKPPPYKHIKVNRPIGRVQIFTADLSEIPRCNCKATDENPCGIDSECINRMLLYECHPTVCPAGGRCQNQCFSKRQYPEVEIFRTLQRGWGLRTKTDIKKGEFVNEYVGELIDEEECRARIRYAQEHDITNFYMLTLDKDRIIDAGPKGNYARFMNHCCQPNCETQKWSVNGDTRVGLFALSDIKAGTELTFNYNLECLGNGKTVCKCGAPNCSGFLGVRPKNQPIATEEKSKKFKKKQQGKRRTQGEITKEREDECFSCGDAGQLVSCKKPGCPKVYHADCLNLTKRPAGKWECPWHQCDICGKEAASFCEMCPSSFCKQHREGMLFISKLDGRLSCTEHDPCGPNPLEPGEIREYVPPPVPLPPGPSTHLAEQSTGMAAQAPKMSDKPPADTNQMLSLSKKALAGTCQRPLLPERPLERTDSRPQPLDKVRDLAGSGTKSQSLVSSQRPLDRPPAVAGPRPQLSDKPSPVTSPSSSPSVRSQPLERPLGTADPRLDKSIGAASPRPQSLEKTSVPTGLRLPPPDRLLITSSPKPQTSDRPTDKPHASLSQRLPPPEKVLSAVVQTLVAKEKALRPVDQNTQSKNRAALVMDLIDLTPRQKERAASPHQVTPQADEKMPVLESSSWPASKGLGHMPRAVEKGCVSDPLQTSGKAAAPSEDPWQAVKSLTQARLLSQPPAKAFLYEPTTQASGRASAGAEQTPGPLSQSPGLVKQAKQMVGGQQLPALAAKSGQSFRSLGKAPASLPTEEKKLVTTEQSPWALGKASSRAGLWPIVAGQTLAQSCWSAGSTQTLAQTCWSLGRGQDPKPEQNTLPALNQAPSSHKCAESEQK

| pIC50 (NSD3) | pIC50 (ASH1L) | pIC50 (NSD1) | pIC50 (ASH1L; nucleosomes, […] SAM, pH […] MgCl2, […] DTT, […] °C, single experiment) | SMILES |
| --- | --- | --- | --- | --- |
| 5.89 | 5.48 | 5.62 | – | CC1(C)CCC(CN2CCN(c3ccc(C(=O)NS(=O)(=O)c4ccc(NCC5CCOCC5)c([N+](=O)[O-])c4)c(Oc4cnc5[nH]ccc5c4)c3)CC2)=C(c2ccc(Cl)cc2)C1 [ABT-199] |
| 6.59 | 6.70 | 6.96 | – | O=C1C(Cl)=C(NCCN2CCOCC2)C(=O)c2ncccc21 [DA3003-1] |
| 5.64 | – | 4.92 | 5.04 | COc1cccc(-n2nc(C(=O)O)cc2-c2ccc(C3CCCCC3)c(Cl)c2)c1 [TC LPA5 4] |
